Measurements from patent publication US20220340908A1, “METHODS FOR DEPLETION OF DELETERIOUS MITOCHONDRIAL GENOMES” (University of Massachusetts, priority 2019, published 2022).
Residues, ends and D or L forms follow the SMILES beside them. *: point of attachment. Cbz = O=C(OCc1ccccc1)*

Legend:
[1] = tested on: KSS ΔmtDNA cells; test: Cell viability (trypan blue), KSS cells; format: cell-based, human; details: 0.1 μM and 0.25 μM CDDO, 72 hours
Method: (§1) The KSS cell line was a gift from Carlos Moraes (29, 30). The CoxI […] cell line was a gift from Giovanni Manfredi (28). Cells were cultured in DMEM (4 mM L-glutamine, 4.5 g/L glucose; Gibco, Thermo Fisher Scientific) plus 10% FBS with 1% pen-strep. Total cellular mtDNA was prepared as described (40). Cells were incubated continuously in the described concentration of CDDO for the indicated number of days. The cells were sub-cultured prior to confluence every 48 hours.
(§2) At the indicated time points, cells were stained with trypan blue (41) and quantified with an automated cell counter TC-20™ (Bio-Rad). The results are an average of three independent assays.

[2] = 20 mg for 56 consecutive days; cited from earlier work
[3] = tested on: CoxI G6930A cybrid cells; test: Percentage of CoxI G6930A mtDNA by deep sequencing in cybrid cells; format: cell-based, human; details: for CoxI G6930A mtDNA percentage: 3 weeks, from 86%; for CoxI G6930A mtDNA heteroplasmic ratio: 18.5 weeks continuous, from ˜90%
Method: Library construction for deep sequencing was modified from our previous report (7). Following CDDO treatment, cells were harvested at different time points and genomic DNA extracted. Briefly, regions flanking the CoxI […] site were PCR amplified using locus-specific primers bearing tails complementary to the Truseq adapters as described previously (38). 50-100 ng input genomic DNA (mtDNA included) was PCR amplified with Phusion High Fidelity DNA Polymerase (New England Biolabs):(98° C., 15 s; 67° C. 25 s; 72° C. 18 s)×30 cycles. 1 μl of each PCR reaction was amplified with barcoded primers to reconstitute the TruSeq adaptors using the Phusion High Fidelity DNA Polymerase (New England Biolabs): (98° C., 15 s; 61° C., 25 s; 72° C., 18 s)×9 cycles. Equal amounts of the products were pooled and gel purified. The purified library was deep sequenced using a paired-end 150 bp Illumina MiSeq run.
MiSeq data analysis for editing at target sites or off-target sites was performed using a suite of Unix-based-software tools. First, the quality of the paired-end sequencing reads (R1 and R2 fastq files) was assessed using FastQC (bioinformatics.babraham.ac.uk/projects/fastqc/). Raw paired-end reads were combined using paired end read merger (PEAR) (39) to generate single merged high-quality full-length reads. Reads were then filtered by quality (using Filter FASTQC (38)) to remove those with a mean PHRED quality score under 30 and a minimum per base score under 24. Each group of reads was then aligned to a corresponding reference sequence using BWA (version 0.7.5) and SAMtools (version 0.1.19). To determine background SNP or sequencing errors, all reads from each negative control replicate were combined and aligned, as described above. Background SNP types and frequencies were then cataloged in a text output format at each base using bam-readcount (github.com/genome/bam-readcount). For each drug treatment group, the average background SNP frequencies (based on SNP type, position and frequency) of the triplicate negative control group were subtracted to obtain the accurate SNP frequencies.
as §1

[4] = tested on: CoxI G6930A cells; test: Respiration assay, oxygen consumption rate (Seahorse), CoxI G6930A cells; format: cell-based, human
Method: (§3) For mitochondrial respiration assays, oxygen consumption rate (OCR) was measured using a Seahorse Extracellular Flux Analyzer XFe96 (Seahorse Biosciences) as described (40). 14,000 cells were seeded per well and OCR was measured using the Cell MitoStress Kit (as described by the manufacture). 180 μl of XF-Media was added to each well and then the plates were subjected to analysis following sequential introduction of 1.5 μM oligomycin, 1.5 μM FCCP and 0.5 μM rotenone/antimycin as indicated. Data is normalized to total protein as determined by the BCA protein assay.

[5] = tested on: KSS heteroplasmic cells; test: Respiration assay, oxygen consumption rate (Seahorse), KSS cells; format: cell-based, human; details: 0.1 μM or 0.25 μM, 4 weeks
Method: as §3

[6] = tested on: KSS cybrid cells; test: KSS ΔmtDNA quantification by qPCR in KSS heteroplasmic cybrid cells; format: cell-based, human; details: for KSS ΔmtDNA percentage: 4 weeks, from ˜50%
Method: For human patient fibroblast cell lines, wild-type and ΔKSS primers were used to detect wild-type mtDNA or ΔKSS mtDNA. Primers that amplify a sequence within the B2M ([…]) gene were used as an internal control for normalization. Absolute quantification was also performed to determine the percentage or ratio of KSS ΔmtDNA relative to total mtDNA (KSS ΔmtDNA and wild-type mtDNA) as previously described (11). Primers that specifically amplify wild-type or ΔmtDNA are listed in Table A. Standard curves for each qPCR primer set were generated using purified plasmids individually containing approximately 1 kb of the mtDNA fragments specific for each primer set. A Student's t-test was employed to determine the level of statistical significance.
as §1
Cells were grown on 6-well plates and siRNAs were transfected with Lipofectamine RNAiMAX (Thermo Fisher Scientific) following the manufacturer's instructions. Human LONP1 RNAi was used in knockdown experiment (Dharmacon L-003979-00-0005) (e.g., a pool comprising GGAAAUCGGCCUACAAGAU (SEQ ID NO:1), GCGCAUGUAUGACGUGACA (SEQ ID NO:2), CGAGAGUACUUCCGCUUCA (SEQ ID NO:3), and GAAGAGACCAAUAUUCCUA (SEQ ID NO:4)).
ATF5 shRNA knockdown lentiviral constructs were generated using psp-108 vector (Addgene), and viruses were produced by co-transfection along with plasmids pMD2.G (Addgene) and psPAX2 (Addgene) into HEK293T cells. All viral titers were predetermined, and same number of viral particles was used for experimental and control samples. KSS cells were infected with lentiviruses, selected with puromycin for 5-7 days, and re-plated for proliferation. ATFS knockdown targeting sequences are: shRNA-1, 5′-[…]-3′ (SEQ ID NO:5); shRNA-2, 5′-[…]-3′ (SEQ ID NO:6); shRNA-3, 5′-[…]-3′ (SEQ ID NO:7); see horizondiscovery.com/en/products/gene-modulation/knockdown-reagents/shrna/PIFs/TRC-Lentiviral-shRNA?nodeid=entrezgene-22809#specifications.

[7] = tested on: CoxI G6930A cells; test: Cell viability (trypan blue), CoxI G6930A cells; format: cell-based, human; details: 0.1 μM and 0.25 μM CDDO, 72 hours
Method: as §1, §2

[8] = target: T1, LONP1 protease (Homo sapiens, UniProt P36776); details: cited from earlier work
T1 sequence (P36776 68-959): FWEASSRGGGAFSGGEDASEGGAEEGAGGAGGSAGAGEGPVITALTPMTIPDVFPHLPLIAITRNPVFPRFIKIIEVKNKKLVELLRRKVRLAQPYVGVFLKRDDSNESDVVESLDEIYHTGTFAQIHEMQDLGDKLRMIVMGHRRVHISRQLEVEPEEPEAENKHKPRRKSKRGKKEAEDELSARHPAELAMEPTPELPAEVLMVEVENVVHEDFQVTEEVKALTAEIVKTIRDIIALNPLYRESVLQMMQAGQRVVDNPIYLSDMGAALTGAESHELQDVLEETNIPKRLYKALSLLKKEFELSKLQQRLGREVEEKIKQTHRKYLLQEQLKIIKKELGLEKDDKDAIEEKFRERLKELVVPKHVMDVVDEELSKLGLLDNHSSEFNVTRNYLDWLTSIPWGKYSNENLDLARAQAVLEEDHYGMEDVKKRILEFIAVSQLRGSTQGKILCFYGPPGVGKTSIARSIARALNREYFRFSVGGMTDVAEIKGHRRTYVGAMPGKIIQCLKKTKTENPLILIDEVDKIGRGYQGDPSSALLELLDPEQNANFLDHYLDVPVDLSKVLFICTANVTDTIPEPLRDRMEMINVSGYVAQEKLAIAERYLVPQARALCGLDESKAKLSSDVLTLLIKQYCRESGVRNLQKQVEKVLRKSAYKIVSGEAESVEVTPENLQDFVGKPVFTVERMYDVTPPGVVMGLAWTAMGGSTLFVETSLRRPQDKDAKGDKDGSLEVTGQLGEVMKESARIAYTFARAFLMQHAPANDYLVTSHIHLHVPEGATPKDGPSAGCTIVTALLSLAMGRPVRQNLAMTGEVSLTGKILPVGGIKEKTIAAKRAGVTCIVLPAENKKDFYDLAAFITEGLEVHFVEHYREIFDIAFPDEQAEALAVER

For `CC1(C)CC[C@]2(C(=O)O)CC[C@]3(C)[C@H](C(=O)C=C4[C@@]5(C)C=C(C#N)C(=O)C(C)(C)[C@@H]5CC[C@]43C)[C@@H]2C1` [CDDO, 2-cyano-3,12-dioxo-oleana-1,9(11)-dien-28-oic acid], the “viability of KSS cell line” value [1] is given as “neither concentration affected viability”, the tolerability [2] is given as “well tolerated” and the “CoxI G6930A mtDNA percentage” value ([3]; 0.1 μM) is given as 68%. For the same molecule, the “CoxI G6930A mtDNA heteroplasmic ratio” value ([3]; 0.1 μM) was ~47%, the “CoxI G6930A mtDNA percentage” value ([3]; 0.25 μM) was 72% and the “CoxI G6930A mtDNA heteroplasmic ratio” value ([3]; 0.25 μM) was 62%. For the same molecule, the “improvement of basal oxygen consumption” value ([4]; 0.1 μM, 3 weeks) was ~2 fold, the “improvement of basal oxygen consumption” value ([4]; 18.5 weeks exposure) was “over 3 fold” and the maximal respiratory capacity ([4]; CDDO time course, 0.1 μM or 0.25 μM) was “increased”. For the same molecule, the “increase in basal oxygen consumption” value [5] was ~2 fold, the “KSS ΔmtDNA percentage” value ([6]; 0.1 μM) was 19.6% and the “KSS ΔmtDNA percentage” value ([6]; 0.25 μM) was 21.2%. The “viability of CoxI G6930A cell line” value [7] was “neither concentration affected viability”.

For `CC(C)C[C@@H](C=O)NC(=O)[C@H](CC(C)C)NC(=O)[C@H](CC(C)C)NC(=O)OCc1ccccc1` [MG132, carbobenzoxy-Leu-Leu-leucinal] (Cbz-Leu-Leu-Leu-aldehyde), the “inhibition of LONP1 protease” value [8] is listed as “potent inhibitors”.

For `C=C1OC(=O)/C(=C\CCCCCCCCCCCCC)[C@@H]1O` [Obtusilactone A], the “inhibition of LONP1 protease” value [8] is listed as “inhibitors of LONP1 protease”.

With `O=c1n(CCCN2CCN(c3cccc(Cl)c3)CC2)nc2ccccn12` [Trazadone] the “heteroplasmy (ΔmtDNA) in KSS cells” value ([6]; shRNA lentivirus or multiple concentrations of drug, FIG. 11) was “improved heteroplasmy”.

In the case of (-)-sesamin, the “inhibition of LONP1 protease” value [8] is given as “inhibitors of LONP1 protease”.

For Z-Leu-Leu-Leu-B(OH)2 [MG262], the “inhibition of LONP1 protease” value [8] is listed as “potent inhibitors”.

B1: LONP1 siRNA: Dharmacon L-003979-00-0005, siRNA pool comprising SEQ ID NO:1-4 against human LONP1 (nucleic acid)
chain 1: GGAAAUCGGCCUACAAGAU
chain 2: GCGCAUGUAUGACGUGACA
chain 3: CGAGAGUACUUCCGCUUCA
chain 4: GAAGAGACCAAUAUUCCUA
modifications: siRNA pool, further chemistry not given here
With B1 the “decrease of ΔmtDNAs” value ([6]; siRNA for 4 days, KSS cybrid line) was 2.7 fold and the “heteroplasmy ratio (% KSS mtDNA)” value ([6]; siRNA for 4 days, from 56.9%) was 27.6%.
